Laboratory results from patent US20130296267A1, “AGENT FOR INTRA-ARTICULAR INJECTION” (priority 2008, published 2013).

Experiment: microscopy of dexamethasone crystals in pure saline and in the innovation
Format: physicochemical
Settings: in phospholipid solution

crystals after twelve hours (after twelve hours): no longer detectable
reduction of crystals (within six hours): 50%
Structure (SMILES): CC(=O)OCC(=O)[C@@]1(O)[C@H](C)C[C@H]2[C@@H]3CCC4=CC(=O)C=C[C@]4(C)[C@@]3(F)[C@@H](O)C[C@@]21C [dexamethasone crystals, dexamethasone acetate]
